Assay results as given in patent US20240158448A1, “MULTIVALENT NANO-'SELF' PEPTIDES AND USES THEREOF” (THE TRUSTEES OF THE UNIVERSITY OF PENNSYLVANIA, priority 2021, published 2024).
“Also recorded” adds a separate entry of the source. Like-named read-outs stand apart in the source and are kept apart here. Non-standard residues stand in square brackets, D forms with d. Primed or numbered codes have the meaning given here. No end group written: not given here. PEG5′ = linker of 5 PEG units between residues

Key:
human THP-1 macrophages = assay: In vitro phagocytosis assay: opsonized human RBCs engulfed by peptide-treated THP-1 macrophages; format: cell-based; details: for EC50: opsonized human RBCs, human macrophages
Protocol: In vitro phagocytosis assay. Fresh human RBCs were washed twice with 50 mM EDTA (Thermo Fischer) in PBS (Gibco) then twice with 5% FBS in PBS. RBCs were opsonized with 20 μg/mL rabbit anti-human RBC antibody (Rockland) in 5% FBS for 1 hour at RT with shaking. For CD47 blocked RBCs, 5 μg/mL of mouse anti-human CD47 (B6H12; BD Biosciences) were added. Thereafter, RBCs were washed with PBS three times and stained with PKH26 dye (1:800 dilution in PBS; Sigma) for 1 hour at RT with shaking in the dark. RBCs were washed and resuspended in PBS.
THP-1 monocytes were PMA differentiated in RPMI for 48 hours. Macrophages were then washed with RPMI media three times. For SIRPα blocked THP-1 macrophages, 20 nM, 1 μM or 50 μM of the nano—Self peptides were incubated with the THP-1 macrophages for 1 hour at 37 ° C., 5% CO2 and 95% humidity. Those THP-Is were then washed with RPMI three times.
CO2 and 95% humidity. Macrophages were then washed with RPMI three times. Adherent and uninternalized RBCs were lysed with water for 30 seconds followed by immediate replacement with RPMI media. In order to distinguish remaining adherent RBCs from internalized RBCs, opsonized RBCs were stained with AlexaFluor 647 donkey anti-rabbit (binds to rabbit polyclonal opsonin on RBC; Invitrogen) IgG (1:1000) while unopsonized, CD47 blocked RBCs were stained with AlexaFluor 647 donkey anti-mouse (binds to mouse monoclonal anti-CD47 on RBCs; Invitrogen) IgG (1:1000) for 30 minutes. After washing, macrophages were fixed with 4% formaldehyde for 15 minutes at RT, washed with PBS, stained with 1 μg/mL Hoechst 33342, and then washed with PBS again. Fluorescence imaging was performed as described elsewhere herein and quantification was done using ImageJ. At least 200 cells were analyzed and experiments were repeated at least three times.

soluble human SIRPα = target: T1, soluble human SIRPα (Homo sapiens, UniProt P78324); assay: Binding of biotinylated peptides on streptavidin beads to soluble SIRPα
T1 construct: Soluble human SIRPα fused with glutathione s-transferase (SIRPα-GST); GST (glutathione S-transferase); made in house
Excerpt: SIRPα Expression and Purification. Soluble human SIRPα fused with glutathione s-transferase (SIRPα-GST) was expressed and purified as previously published (Tsai, et al., 2008, J. Cell Biol. 180:989-1003).
Peptide biotinylation: NHS-biotin (Thermo Fischer) was mixed with nS-wt and nS-V, respectively, following the manufacturer's protocol. The biotinylated peptides were dialyzed against PBS.
Streptavidin-beads binding: Streptavidin-coated polystyrene beads of 2.1 μm radius (Spherotech) were washed and blocked 3x in PBS plus 0.4% BSA. nS-wt-biotin or nS-V-biotin were incubated with the beads for 1 hour at room temperature with shaking. Beads were washed with PBS, then incubated with recombinant SIRPα for 1 hour in ice. Streptavidin beads were labeled with rabbit anti-streptavidin-FITC (Invitrogen) and SIRPα was stained with mouse anti-SIRPα-allophycocyanin (anti-SIRPα-APC; Invitrogen).

[1] = test system: mouse bone marrow derived macrophages (BMDMs); assay: Phagocytosis of anti-TYRP1 opsonized B16F10 melanoma cells by mouse bone marrow derived macrophages; format: cell-based
Protocol: B16F10 cells: Bone marrow cells were isolated from femurs and tibias of healthy C57BL6/J mice (The Jackson Laboratory) and cultured in 10-cm petri dishes containing IMDM (Gibco) supplemented with 10% v/v FBS, 1% v/v penicillin/streptomycin, and 1:10,000 macrophage colony stimulating factor cytokine (M-CSF; Biolegend) for 7 days at 37° C., 5% CO2 and 95% humidity. All animal experiments were performed according to protocols approved by the University of Pennsylvania's IACUC (protocol #805977 and #804455). The resulting mouse bone marrow derived macrophages (BMDMs) were washed with PBS containing Ca2^+/Mg2^+ (Gibco) then detached with 0.25% trypsin-EDTA (Gibco) and re-plated in 6-well tissue culture plates using IMDM+M-CSF for 24 hours.
Mouse melanoma B16F10 cells were washed with PBS containing Ca2-/Mg2- and then trypsinized with 0.05% trypsin-EDTA. After washing twice with PBS, the cells were labeled with 1:10,000 CFDA—SE (Thermo Fisher) in PBS for 10 minutes. B16F10 cells were opsonized with 10 μg/mL anti-TYRP1 (TA99; Bio X Cell) in PBS for 2 hours at 4° C.with occasional inverting. For CD47 blocked B16F10 cells, 5 μg/mL of […] were added. During the incubation time, the BMDMs were washed with media then stained with 1:2,000 CellTracker Deep Red (Thermo Fisher) in PBS with Ca2^+/Mg2^+ for 10 min. After washing, 50 μM of the nano—Self peptides were incubated with the BMDMs for 1 hour at 37° C., 5% CO2 and 95% humidity. Finally, BMDMs were washed twice with PBS and then twice with serum-free IMDM.
Without removing the supernatant, the opsonized melanoma cells were added to the labeled BMDMs at a ratio of 2:1 for 2 hours at 37° C., 5% CO2 and 95% humidity. During the last 15 minutes of the assay, the cells were Hoechst stained. The wells were washed with serum free IMDM then fixed with 4% formaldehyde for 15 minutes at RT, and PBS washed. Fluorescence imaging was performed using an Olympus IX71 with a digital EMCCD camera (Cascade 512B) and a 40×/0.6 NA objective. Quantification was done with ImageJ (NIH). At least 200 cells were analyzed and two-tailed student's t-test was used to determine statistical significance.

T1 sequence (P78324 31-373 limits assumed): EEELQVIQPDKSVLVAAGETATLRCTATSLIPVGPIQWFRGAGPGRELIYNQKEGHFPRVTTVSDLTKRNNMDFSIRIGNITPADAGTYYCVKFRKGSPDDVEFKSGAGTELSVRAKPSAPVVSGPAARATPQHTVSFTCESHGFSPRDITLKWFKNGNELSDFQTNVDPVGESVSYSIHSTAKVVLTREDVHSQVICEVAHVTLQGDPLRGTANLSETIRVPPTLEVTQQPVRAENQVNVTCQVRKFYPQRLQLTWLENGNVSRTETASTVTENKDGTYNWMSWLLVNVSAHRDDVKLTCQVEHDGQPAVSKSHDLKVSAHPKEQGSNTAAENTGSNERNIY

Substance | macrophages containing opsonized RBCs (human THP-1 macrophages; maximum peptide concentration 50 μM, anti-RBC opsonized RBCs) | EC50 (human THP-1 macrophages; read-out: effective potency (keff) for phagocytosis) | effect on phagocytosis of opsonized RBCs (words) (human THP-1 macrophages; saturating / 50 μM peptide) | SIRPα binding to peptide-coated beads (soluble human SIRPα) | effect on phagocytosis of opsonized WT and SIRPα KO B16 cells ([1]; 50 μM peptide) | effect on phagocytosis of opsonized RBCs (words) (human THP-1 macrophages; 20 nM peptide) | macrophages with at least one opsonized RBC internalized (human THP-1 macrophages; 20 nM peptide, anti-RBC opsonized RBCs, 1 h assay) | increase in phagocytosis at higher concentration (human THP-1 macrophages; 1 μM, 50 µM versus 20 nM) | EC50 (human THP-1 macrophages; read-out: efficacy constant (Keff) for phagocytosis) | activity of bivalent peptide in primary mouse macrophages [1]
VTELTREG [nS-wt, 8-amino acid wild type nano-Self peptide from the CD47 loop, C-terminal amide] | ~30% | ~1000 nM | least effective among monovalents; also recorded: Lower levels of phagocytosis; also recorded: gives the same result as anti-CD47 | fluorescence is only observed in the presence of biotinylated peptide | lower levels | – | – | – | – | –
(VTELFREG-PEG5)2-K (VTELFREG[PEG5′]K[PEG5′]GERFLETV; not fully specified; also: bivalent lysine core) [nS-FF, bivalent nS-F linked through PEG5 linkers to a C-terminal Lys] | – | – | – | – | – | successful in activating THP-1 to engulf opRBCs; also recorded: more potent in enhancing phagocytosis | ~40% | ~5% | ~8 nM | low activity; also recorded: reduced activity with mouse macrophages
